The record followed here is PMC8746705, “Comparison of Experimental Strategies to Study L-Type Amino Acid Transporter 1 (LAT1) Utilization by Ligands” (Molecules, 2021).

For data set [1], the target named is T1, LAT1 (Mus musculus, UniProt Q9Z127). Description: Cis-inhibition of radiolabelled LAT1-probe substrate uptake into BV2 cells. The format is cell-based. To be noted: for IC50: 5 min, mean ± SD; for Inhibition of LAT1-probe substrate uptake / LAT1 affinity: over all probe substrates. In outline: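 Mouse BV2 cells preincubated 10 min at 37 °C in choline-based HBSS pH 7.4, then 5 min uptake of [14C]-L-leucine (0.2 µCi/mL) or [3H]-methionine, -tryptophan or -kynurenine (2 µCi/mL) with 0.1–1000 μM compound. Cell radioactivity counted by liquid scintillation after lysis. IC50 by nonlinear regression.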

For data set [2], the target named is T1, LAT1. Description: Cellular uptake of compounds in the presence of LAT1-inhibitor (KMH-233). It is filed as cell-based. To be noted: 100 µM compound, 100 µM KMH-233, 30 min, BV2. In outline:
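Cells were pre-exposed 10 min to 100 µM KMH-233, then incubated 30 min in HBSS with 100 µM compound plus inhibitor. Intracellular compound was quantified by LC-MS against a spiked standard curve and normalised to protein.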

The test system of data set [3] is immortalized mouse microglia (BV2 cells). Description: Cellular viability (resazurin / Alamar blue). The format is cell-based. The conditions noted are these: 72 h. The protocol:
Immortalized microglia (BV2 cells) were seeded at the density of 10 × 10^3 cells/well onto collagen-coated 96-well plates. The cells were used for the proliferation experiments one day after seeding. The studied compounds (50 and 100 µM) were added into the growth medium and incubated for 3 days (the medium was replaced with a fresh one with studied compounds after daily measurements). Each day the cell viability was determined by the resazurin cell proliferation kit (MilliporeSigma, St. Louis, MO, USA), which is directly proportional to aerobic respiration and cellular metabolism of cells. The samples were measured fluorometrically by monitoring the increase in fluorescence at λex 560 nm and λem 590 nm with the Envision plate reader (EnVision, Perkin Elmer, Inc., Waltham, MA, USA). The cell viability was also followed by visualizing the wells with microscopy. The ability of compounds to inhibit the viability of the cells was expressed as percentages (%) compared to the untreated controls.
In general terms: The colour change of resazurin is a common sign of viable cells or microbes.

Data set [4] deals with T1, LAT1. Description: Concentration-dependent cellular uptake into BV2 cells, Eadie–Hofstee analysis, Transport Type 1 (LAT1). The format is cell-based. To be noted: for Km / Transport Type 1 (LAT1) Vmax: 1–200 µM, 30 min, BV2, Eadie–Hofstee, mean ± SD, n = 3; for Cellular uptake: BV2 cells. In outline:
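Mouse BV2 microglia incubated 30 min at 37 °C in HBSS with compounds at 1–200 μM. Intracellular compound quantified by LC-MS/MS (positive ESI, C18 column) and normalized to total protein. Transport components resolved from Michaelis-Menten kinetics by Eadie–Hofstee analysis.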

Data set [5] in a line: Time-dependent cellular uptake of compounds into BV2 cells (LC-MS/MS). The format is cell-based, mouse. The conditions noted are these: mouse, BV2 microglia cells, 100 µM compound, 1–60 min, mean ± SD, n = 3, read-out: T½ of cellular uptake. In outline: (§1)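 BV2 cells were incubated with 100 μM compound in HBSS at 37 °C for 1–60 min, washed ice-cold and lysed in 0.1 M NaOH. Intracellular compound was quantified by positive-mode ESI LC-MS/MS against internal-standard calibration curves and normalised to Bradford protein content.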

The subject of data set [6] is immortalized mouse microglia (BV2). Described as above. The format is cell-based. The conditions noted are these: for Max. cellular uptake: 100 µM compound, 1–60 min, mean ± SD, n = 3. In outline: as §1
The mark [7] stands for this setting: probe [3H]-L-Kynu, n = 3–4, read-out: IC50 of [3H]-L-Kynu uptake.
Setting [8] is: probe [3H]-L-Met, n = 3–4, read-out: IC50 of [3H]-L-Met uptake.
The mark [9] stands for this setting: probe [3H]-L-Trp, n = 3–4, read-out: IC50 of [3H]-L-Trp uptake.
The mark [10] stands for this setting: probe [14C]-L-Leu, n = 3–4, read-out: IC50 of [14C]-L-Leu uptake.
[11] abbreviates: higher concentrations (>100 µM).

Where two headings read alike, the source gives them in different places.

T1 sequence (Q9Z127 whole entry): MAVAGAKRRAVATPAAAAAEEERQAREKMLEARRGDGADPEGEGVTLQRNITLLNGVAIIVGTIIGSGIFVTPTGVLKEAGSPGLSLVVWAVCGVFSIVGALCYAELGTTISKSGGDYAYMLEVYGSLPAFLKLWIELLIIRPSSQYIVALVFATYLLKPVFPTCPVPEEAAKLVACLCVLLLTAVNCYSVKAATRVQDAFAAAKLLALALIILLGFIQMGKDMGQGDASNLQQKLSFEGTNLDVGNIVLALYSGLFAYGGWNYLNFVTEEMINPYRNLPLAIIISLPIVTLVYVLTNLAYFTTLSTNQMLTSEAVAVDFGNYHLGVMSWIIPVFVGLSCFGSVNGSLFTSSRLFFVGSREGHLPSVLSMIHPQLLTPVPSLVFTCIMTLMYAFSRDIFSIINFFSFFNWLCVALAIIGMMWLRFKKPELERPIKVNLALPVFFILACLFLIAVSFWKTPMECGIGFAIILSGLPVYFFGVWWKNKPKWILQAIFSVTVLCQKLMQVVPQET
T1 sequence (P10852 whole entry partner): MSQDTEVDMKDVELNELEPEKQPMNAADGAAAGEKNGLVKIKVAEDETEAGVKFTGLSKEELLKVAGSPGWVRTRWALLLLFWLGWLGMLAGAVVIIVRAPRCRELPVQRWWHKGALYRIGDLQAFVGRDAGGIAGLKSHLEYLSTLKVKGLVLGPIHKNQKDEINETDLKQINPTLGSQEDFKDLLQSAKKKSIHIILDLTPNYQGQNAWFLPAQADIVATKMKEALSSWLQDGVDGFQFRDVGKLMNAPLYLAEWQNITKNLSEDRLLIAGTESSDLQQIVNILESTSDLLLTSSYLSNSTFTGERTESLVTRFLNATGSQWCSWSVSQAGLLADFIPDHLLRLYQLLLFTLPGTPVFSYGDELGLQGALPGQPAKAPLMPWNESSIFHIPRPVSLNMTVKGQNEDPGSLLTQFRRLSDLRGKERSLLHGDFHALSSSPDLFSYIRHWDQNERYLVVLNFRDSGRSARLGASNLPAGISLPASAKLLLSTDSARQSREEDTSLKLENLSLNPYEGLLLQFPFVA

In the case of `NC(Cc1cccc(C(=O)Oc2ccc(-c3ccc(-c4ccc5c(c4)COC5=O)s3)cc2)c1)C(=O)O` (stereo not shown) [Compound 1], the IC50 was 0.7 ± 0.1 µM on LAT1 [1] (setting [7]), 8.2 ± 1.7 µM at LAT1 [1] (setting [8]), 6.7 ± 1.6 µM at LAT1 [1] (setting [9]) and 6.8 ± 1.4 µM at LAT1 [1] (setting [10]). The “Cellular uptake in the presence of LAT1-inhibitor” value on LAT1 [2] is listed as “inhibited significantly”. Moreover, the “Effect on cell viability” value in data set [3] (setting [11]) is on record as “started to impact the cell viability”. Also, the Km on LAT1 [4] turned out to be 116 ± 72 µM. For the same compound, at LAT1 [4], the “Transport Type 1 (LAT1) Vmax” value was determined as 750 ± 435 pmol/mg/min. For the same compound, the “Cellular uptake” value at LAT1 [4] was “highest cellular uptake”. The half-life at 100 μM in data set [5] turned out to be 9.11 ± 1.52 min. Further, in data set [6], the Max. cellular uptake was 176.0 ± 9.0 nmol/mg of protein.

On to `C[C@H](C(=O)Nc1cccc(C[C@H](N)C(=O)O)c1)c1cccc(C(=O)c2ccccc2)c1` [Compound 2], for which the IC50 turned out to be 4.3 ± 1.3 µM on LAT1 [1] (setting [7]), 3.3 ± 1.5 µM on LAT1 [1] (setting [8]), 9.9 ± 1.3 µM at LAT1 [1] (setting [9]) and 2.8 ± 1.5 µM at LAT1 [1] (setting [10]). In addition, at LAT1 [2], the “Cellular uptake in the presence of LAT1-inhibitor” value was “inhibited significantly”. The “Effect on cell viability” value in data set [3] (setting [11]) is recorded as “started to impact the cell viability”. Besides, at LAT1 [4], the Km turned out to be 0.8 ± 0.1 µM. The “Transport Type 1 (LAT1) Vmax” value at LAT1 [4] worked out at 0.09 ± 0.01 pmol/mg/min. Moreover, the half-life at 100 μM in data set [5] is 1.97 ± 0.66 min. In addition, in data set [6], the Max. cellular uptake is 22.31 ± 1.34 nmol/mg of protein.

Consider `C[C@H](C(=O)Oc1cccc(C[C@H](N)C(=O)O)c1)c1cccc(C(=O)c2ccccc2)c1` [Compound 4], for which the IC50 on LAT1 [1] (setting [7]) came out at 35.3 ± 1.2 µM; on LAT1 [1] (setting [8]), 26.1 ± 1.4 µM; on LAT1 [1] (setting [9]), 38.8 ± 3.1 µM; on LAT1 [1] (setting [10]) it was 15 ± 1.3 µM. Besides, the “Cellular uptake in the presence of LAT1-inhibitor” value at LAT1 [2] is “inhibited significantly”. In addition, the “Effect on cell viability” value in data set [3] (setting [11]) is listed as “started to impact the cell viability”. On LAT1 [4], the Km was found to be 41 ± 6 µM. Moreover, on LAT1 [4], the “Transport Type 1 (LAT1) Vmax” value is 88 ± 9 pmol/mg/min. The “Cellular uptake” value on LAT1 [4] is “effectively transported into the cells”. The half-life at 100 μM in data set [5] was 1.86 ± 0.42 min. Moreover, in data set [6], the Max. cellular uptake is 4.17 ± 0.19 nmol/mg of protein.

Consider `COc1cc(C=CC(=O)NCc2cccc(CC(N)C(=O)O)c2)ccc1O` (stereo not shown) [Compound 5], for which, at LAT1 [1], the “Inhibition of LAT1-probe substrate uptake / LAT1 affinity” value was “not able to inhibit the LAT1-probe substrate uptake very effectively”. Further, the 50% inhibitory concentration (IC50) on LAT1 [1] (setting [7]) was 43.3 ± 1.1 µM; at LAT1 [1] (setting [8]), more than 100 µM; at LAT1 [1] (setting [9]), more than 100 µM; at LAT1 [1] (setting [10]) it was more than 100 µM. Besides, the “Cellular uptake in the presence of LAT1-inhibitor” value at LAT1 [2] was “only reductive trends were seen”. Further, the Km on LAT1 [4] was determined as 2.1 ± 0.4 µM. Also, the “Transport Type 1 (LAT1) Vmax” value at LAT1 [4] came out at 0.11 ± 0.01 pmol/mg/min. The half-life at 100 μM in data set [5] was less than 1 min. The Max. cellular uptake result in data set [6] is listed as “cannot be calculated”. Moreover, the “LAT1-substrate or LAT1-binder” value in data set [6] (concluded from time-dependent uptake, 100 µM) is on record as “LAT1-binders rather than substrates”.

Take `COc1cc(/C=C/C(=O)Oc2cccc(C[C@H](N)C(=O)O)c2)ccc1O` [Compound 7]: the IC50 on LAT1 [1] (setting [7]) stood at 96.8 ± 1.2 µM; on LAT1 [1] (setting [8]), 13.6 ± 1.8 µM; at LAT1 [1] (setting [9]), 19.8 ± 1.3 µM; at LAT1 [1] (setting [10]) it was 37.6 ± 1.8 µM. Besides, the “Cellular uptake in the presence of LAT1-inhibitor” value on LAT1 [2] is recorded as “inhibited significantly”. Moreover, the Km at LAT1 [4] was found to be 0.3 ± 0.1 µM. For the same compound, the “Transport Type 1 (LAT1) Vmax” value on LAT1 [4] is 0.09 ± 0.03 pmol/mg/min. For the same compound, the half-life at 100 μM in data set [5] stood at 7.35 ± 3.44 min. Moreover, the Max. cellular uptake in data set [6] is 21.14 ± 2.93 nmol/mg of protein.

As for `N[C@@H](Cc1cccc(NC(=O)c2ccccc2O)c1)C(=O)O` [Compound 8], the “Inhibition of LAT1-probe substrate uptake / LAT1 affinity” value on LAT1 [1] is listed as “not able to inhibit the LAT1-probe substrate uptake very effectively”. The IC50 on LAT1 [1] (setting [7]) was 18.1 ± 1.2 µM; at LAT1 [1] (setting [8]) it was 12 ± 1.4 µM; at LAT1 [1] (setting [9]) it was 24.5 ± 2 µM. In addition, the “Cellular uptake in the presence of LAT1-inhibitor” value at LAT1 [2] is recorded as “inhibited significantly”. In data set [5], the half-life at 100 μM was found to be 2.65 ± 0.6 min. For the same compound, the Max. cellular uptake in data set [6] was 8.05 ± 0.40 nmol/mg of protein.

On to `C[C@H](C(=O)Nc1cccc(C[C@H](N)C(=O)O)c1)c1ccc(-c2ccccc2)c(F)c1` [Compound 9], for which the IC50 at LAT1 [1] (setting [7]) is 4.7 ± 1.2 µM; at LAT1 [1] (setting [8]), 1.7 ± 1.8 µM; on LAT1 [1] (setting [9]), 15.9 ± 7.8 µM. Besides, at LAT1 [2], the “Cellular uptake in the presence of LAT1-inhibitor” value was “inhibited significantly”. In addition, the “Effect on cell viability” value in data set [3] (50 µM) was “minor effects on cell viability”. Further, the half-life at 100 μM in data set [5] was more than 300 min. In data set [6], the Max. cellular uptake was 101.6 ± 86.1 nmol/mg of protein.

In the case of `C[C@H](C(=O)Oc1cccc(C[C@H](N)C(=O)O)c1)c1ccc(-c2ccccc2)c(F)c1` [Compound 12], the IC50 on LAT1 [1] (setting [7]) came to 3 ± 1.5 µM; at LAT1 [1] (setting [8]), 4.3 ± 1.7 µM; on LAT1 [1] (setting [9]), 6.3 ± 1.3 µM. Further, at LAT1 [2], the “Cellular uptake in the presence of LAT1-inhibitor” value is listed as “inhibited significantly”. The “Effect on cell viability” value in data set [3] (50 µM) is “minor effects on cell viability”; in data set [3] (setting [11]) it was “started to impact the cell viability”. Besides, the half-life at 100 μM in data set [5] is 19.2 ± 5.71 min. Also, in data set [6], the Max. cellular uptake is 36.12 ± 4.17 nmol/mg of protein.

For `COc1ccc2cc([C@H](C)C(=O)Oc3cccc(C[C@H](N)C(=O)O)c3)ccc2c1` [Compound 15], the figures for the IC50 at LAT1 [1] (setting [7]), at LAT1 [1] (setting [8]) and on LAT1 [1] (setting [9]) were 3.1 ± 1.3 µM, 25.3 ± 1.6 µM and 11.1 ± 1.2 µM, respectively. The “Cellular uptake in the presence of LAT1-inhibitor” value on LAT1 [2] is listed as “inhibited significantly”. In addition, the “Effect on cell viability” value in data set [3] (50 µM) was “minor effects on cell viability”; in data set [3] (setting [11]), “started to impact the cell viability”. For the same compound, the Km on LAT1 [4] was 9.3 ± 2.7 µM. For the same compound, the “Transport Type 1 (LAT1) Vmax” value on LAT1 [4] was 280 ± 65 pmol/mg/min. Moreover, the “Cellular uptake” value at LAT1 [4] is “highest cellular uptake”. Further, the half-life at 100 μM in data set [5] came to 12.5 ± 3.62 min. For the same compound, in data set [6], the Max. cellular uptake is recorded as 29.09 ± 2.84 nmol/mg of protein.

Usually IC50 stands for the point on the concentration scale where inhibition reaches its midpoint. As usually defined, the Km is the concentration of substrate that gives half-maximal velocity.
